Data from the NIST ThermoML archive (doi:10.1016/j.fluid.2008.03.012).
Numbers after ± are expanded uncertainties.

Conditions: 101.33 kPa, Liquid

SMILES: CCOC(=O)CC(C)=O [ethyl 3-oxobutanoate]
- mass density (278.15 K): 1043.1 ± 5 kg/m3
- mass density (288.15 K): 1034.5 ± 1.1 kg/m3
- mass density (298.15 K): 1023.5 ± 1.1 kg/m3
- mass density (313.15 K): 1008 ± 1.2 kg/m3
- mass density (328.15 K): 992.1 ± 1.3 kg/m3
- mass density (338.15 K): 981.9 ± 1.4 kg/m3
- mass density (348.15 K): 971.4 ± 1.5 kg/m3
